From patent US3968207A, “Method of controlling fleas and ticks on cats and dogs” (priority 1975, dated 1976)
Read-outs that look alike come from different tables or passages of the source.

Assays:
Type in all cases: in vivo
[1] = system: Ctenocephalides felis; test: Topical (spray or 2% dust) flea control on dogs, Table I
Method: Dogs used in testing were placed in raised cages with steel grate floors. Three days prior to treatment, 100 fleas were placed on each dog. On the day of treatment each cage was lined with absorbent brown paper. Dogs were treated at various dose levels (1-60 mg./kg.) applied topically using a 2% active ingredient dust formulation, or a dilute aqueous dispersion applied as a spray. Activity was determined by the number of dead fleas recovered from the brown paper, and a systematic examination of the test animal in relation to infested, untreated control dogs.
Residual activity of the initial application of the test compound was done by experimentally reinfesting each dog at 7-day intervals with an additional 100 adult C. felis. Activity was determined as described above.

[2] = system: Boophilus microplus larvae; test: Control of acarina larvae in pipettes (simulated spray); conditions: Rhipicephalus microplus, 48 hours, read-out: Activity (larval mortality)
Method: Boophilus is a one-host tick which uses only one host animal during its three parasitic life stages (larvae, nymph, adult). […] Twenty larvae are enclosed in a pipette sealed at one end with a gauze material, and the "solution" containing the test compound is then drawn through the pipette with a vacuum hose, simulating a spray system. The open end of the pipette is sealed with plastiline and the ticks held for 48 hours at room temperature and 80+% humidity. Activity is based on mortality. The test compound was 100%, 100% and 0% active at 0.01%, 0.001% and 0.0001% (w/w), respectively.

[3] = system: Amblyomma americanum; test: Control of adult ticks on rabbits, Table II; conditions: for mortality at 0.05 % / mortality at 0.2 % / mortality at 0.4 %: Amblyomma americanum, topical, 96 h, 4 days after treatment
Method: The midsection of each host rabbit is clipped, and a rubber capsule is cemented to the clipped portion of the skin. After a 24-hour drying period, the 10 ticks are placed in the capsule and allowed to attack the host for 72 hours. On the day of treatment, each capsule is sprayed with 2-3 cc. of the test compound, O,O,O',O'-tetramethyl O,O'-thiodi-p-phenylene phosphorothioate. Sufficient rabbits were used to test at concentrations of 0.05%, 0.20% and 0.40% (w/w), respectively.
Mortality was noted 4 days after treatment. On those rabbits where female ticks survived, five untreated male ticks were introduced and the ticks allowed to mate. Fully engorged females were then removed from the capsule and placed in petri dishes for oviposition. Effect of fecundity is then determined by comparing the percent of eggs laid and the percent of eggs which hatch in the treated versus the controls.

[4] = system: Ctenocephalides felis; test: Flea control on dogs fed medicated diet, Table IV; set-up: key: 100% Control; PC: Partial Control; NC: No Control
Method: (§1) Five groups of two mongrel dogs each were fed a daily dose of 0, 6.25, 25, 100 or 400 mg. O,O,O',O'-tetramethyl O,O'-thiodi-p-phenylene phosphorothioate/kg. body weight in Agway Big Red Dog Meal. Dogs eating less than 75% of the food were given a corrected dose by gelatin capsule to equal 100%. Medication began 1 day after infesting each dog with 100 adult Ctenocephalides felis and 2 days before infesting each dog with 10 Dermacentor variabiles and 10 Rhipicephalus sanguineus adults.

[5] = system: Dermacentor variabilis; test: Tick control on dogs fed medicated diet, Table V; conditions: for % Control of Adult Engorged Female Ticks D.V.: dogs
Method: as §1

[6] = system: Rhipicephalus sanguineus; test: Tick control on dogs fed medicated diet, Table V; conditions: for % Control of Adult Engorged Female Ticks R.S.: dogs
Method: as §1

[7] = 400 mg/kg in feed, end of experiment (8 days)

COP(=S)(OC)Oc1ccc(Sc2ccc(OP(=S)(OC)OC)cc2)cc1 [O,O,O',O'-tetramethyl O,O'-thiodi-p-phenylene phosphorothioate]
Percent Activity ([1]; 2% dust 10.0 mg/kg, day 0): 100%
Percent Activity ([1]; 2% dust 10.0 mg/kg, day 7): 100%
Percent Activity ([1]; 2% dust 10.0 mg/kg, day 14): 100%
Percent Activity ([1]; 2% dust 10.0 mg/kg, day 21): 100%
Percent Activity ([1]; 2% dust 10.0 mg/kg, day 28): 80%
Percent Activity ([1]; 2% dust 10.0 mg/kg, day 42): 0%
Percent Activity ([1]; 2% dust 20.0 mg/kg, day 0): 100%
Percent Activity ([1]; 2% dust 20.0 mg/kg, day 7): 100%
Percent Activity ([1]; 2% dust 20.0 mg/kg, day 14): 100%
Percent Activity ([1]; 2% dust 20.0 mg/kg, day 21): 100%
Percent Activity ([1]; 2% dust 20.0 mg/kg, day 28): 100%
Percent Activity ([1]; 2% dust 20.0 mg/kg, day 42): 0%
Percent Activity ([1]; 2% dust 40.0 mg/kg, day 0): 100%
Percent Activity ([1]; 2% dust 40.0 mg/kg, day 7): 100%
Percent Activity ([1]; 2% dust 40.0 mg/kg, day 14): 100%
Percent Activity ([1]; 2% dust 40.0 mg/kg, day 21): 100%
Percent Activity ([1]; 2% dust 40.0 mg/kg, day 28): 100%
Percent Activity ([1]; 2% dust 40.0 mg/kg, day 42): 0%
Percent Activity ([1]; spray 1.25 mg/kg, day 0): 100%
Percent Activity ([1]; spray 1.25 mg/kg, day 7): 100%
Percent Activity ([1]; spray 1.25 mg/kg, day 14): 100%
Percent Activity ([1]; spray 1.25 mg/kg, day 21): 100%
Percent Activity ([1]; spray 1.25 mg/kg, day 25): 0%
Percent Activity ([1]; spray 2.5 mg/kg, day 0): 100%
Percent Activity ([1]; spray 2.5 mg/kg, day 7): 100%
Percent Activity ([1]; spray 2.5 mg/kg, day 14): 100%
Percent Activity ([1]; spray 2.5 mg/kg, day 21): 0%
Percent Activity ([1]; spray 10.0 mg/kg, day 0): 100%
Percent Activity ([1]; spray 10.0 mg/kg, day 7): 100%
Percent Activity ([1]; spray 10.0 mg/kg, day 14): 100%
Percent Activity ([1]; spray 10.0 mg/kg, day 21): 100%
Percent Activity ([1]; spray 10.0 mg/kg, day 28): 10%
mortality at 0.0001 % ([2]; 0.0001% (w/w)): 0%
mortality at 0.001 % ([2]; 0.001% (w/w)): 100%
mortality at 0.01 % ([2]; 0.01% (w/w)): 100%
Eggs Hatched (%) ([3]; 0.05% (w/w)): 90%
Eggs Hatched (%) ([3]; 0.20% (w/w)): 50%
Control of ticks ([3]; 0.20% and 0.40% (w/w)): effectively controls amblyomma ticks by killing the adult males and some females and rendering the female ova non-viable
Eggs Hatched (%) ([3]; 0.40% (w/w)): 1%
mortality at 0.05 % ([3]; 0.05% (w/w), read-out: Deaths (%) Females): 10%
mortality at 0.05 % ([3]; 0.05% (w/w), read-out: Deaths (%) Males): 70%
mortality at 0.2 % ([3]; 0.20% (w/w), read-out: Deaths (%) Females): 40%
mortality at 0.2 % ([3]; 0.20% (w/w), read-out: Deaths (%) Males): 100%
mortality at 0.4 % ([3]; 0.40% (w/w), read-out: Deaths (%) Females): 50%
mortality at 0.4 % ([3]; 0.40% (w/w), read-out: Deaths (%) Males): 100%
Flea Control ([4]; 6.25 mg/kg in feed, 1 dog, after 3 days): complete flea control
Flea Control ([4]; 6.25 mg/kg in feed, other dog, after 4 days): complete flea control
Flea Control ([4]; 400, 100 or 25 mg/kg in feed, all dogs, after 48 hours): Complete flea control
Flea Control ([4]; in feed 6.25 mg/kg daily, day 2): NC and PC
Flea Control ([4]; in feed 6.25 mg/kg daily, day 4): 100 (100% Control)
Flea Control ([4]; in feed 25 mg/kg daily, day 2): 100 (100% Control)
Flea Control ([4]; in feed 100 mg/kg daily, day 2): 100 (100% Control)
Flea Control ([4]; in feed 400 mg/kg daily, day 2): 100 (100% Control)
effect against adult ticks ([5]; 6.25 mg/kg in feed): ineffective
effect against adult ticks ([5]; 25 mg/kg in feed): ineffective
condition of ticks ([5]; 100 mg/kg in feed, some ticks on one dog): discolored and stunted
condition of adult ticks in capsules [5, 7]: either dead or moribund
% Control of Adult Engorged Female Ticks D.V. ([5]; 6.25 mg/kg in feed): 0%
% Control of Adult Engorged Female Ticks D.V. ([5]; 25 mg/kg in feed): 10%
% Control of Adult Engorged Female Ticks D.V. ([5]; 100 mg/kg in feed): 30%
% Control of Adult Engorged Female Ticks D.V. ([5]; 400 mg/kg in feed): 100%
effect against adult ticks ([6]; 6.25 mg/kg in feed): ineffective
effect against adult ticks ([6]; 25 mg/kg in feed): ineffective
condition of ticks ([6]; 100 mg/kg in feed): engorged and detached normally
condition of two female ticks on the ear of one dog ([6]; 400 mg/kg in feed, end of experiment): appeared normal, though not completely engorged
condition of adult ticks in capsules [6, 7]: either dead or moribund
% Control of Adult Engorged Female Ticks R.S. ([6]; 6.25 mg/kg in feed): 20%
% Control of Adult Engorged Female Ticks R.S. ([6]; 25 mg/kg in feed): 0%
% Control of Adult Engorged Female Ticks R.S. ([6]; 100 mg/kg in feed): 50%
% Control of Adult Engorged Female Ticks R.S. ([6]; 400 mg/kg in feed): 100%
